Assays:
Assay type in all cases: in vivo, mouse
[1] = tested on: BR5023 xenografts; experiment: TNBC patient-derived xenograft BR5023, tumor volume; conditions: 40 mg/kg or 30 mg/kg i.v. BIW
Protocol: (§1) Patient-derived xenograft (PDX) models from TNBC patients (BR5010, BR5013, BR5015, and BR5023) were established in NOD-SCID mice at Crown Bioscience (San Diego, USA). Cryo vials containing tumor cells were thawed and prepared for injection into mice. Cells were washed in PBS, counted, and resuspended in cold PBS at a concentration of 50,000-100,000 viable cells/100 ul. Cell suspensions were mixed with an equal volume of Cultrex ECM and kept on ice during transport to the vivarium. Cells were prepared for injections by withdrawing ECM-Cell mixture into a chilled slip-tip syringe fitted with a 26G 7/8 (0.5 mm×22 mm) needle. The filled syringes were kept on ice to avoid the solidification of ECM. Each mouse was inoculated subcutaneously in the right flank with 200 uL of the cell suspension. Tumor sizes were measured in two dimensions using a caliper, and the volumes were expressed in mm^3 using the formula: V=0.5 a×b^2, where a and b are the longest and shortest diameters of the tumor, respectively. Compound 1 treatment was started when the average tumor size reached 150-200 mm^3.
(§2) Compound 1 was formulated in w/v 20% Captisol (pH 4-6) and administered by i.v. twice weekly (BIW) at a final dose of 40 mg/kg or 30 mg/kg in a 10 ml/kg volume. Tumor volumes were measured twice weekly over the course of the study. […]

[2] = tested on: HCC70 xenografts; experiment: Subcutaneous HCC70 xenograft, tumor volume; conditions: 40 mg/kg i.v. twice weekly (BIW), vehicle: increase in tumor volume
Protocol: Subcutaneous HCC70 xenografts were established in BALC/c nude mice at ChemPartner (Shanghai, China). Each mouse was inoculated subcutaneously in the right flank with 5×10^6 HCC70 cells (ATCC, CAT #: CRL-2315) in 0.2 ml of a 1:1 mixture of base medium and Matrigel. Tumor sizes were measured in two dimensions using a caliper, and the volumes were expressed in mm^3 using the formula: V=0.5 a×b^2 where a and b are the longest and shortest diameters of the tumor, respectively. Compound 1 treatment was started when the average tumor size reached 181 mm^3.
Compound 1 was formulated in w/v 20% Captisol (pH 4-6) and administered by i.v. twice weekly (BIW) at a final dose of 40 mg/kg in a 10 ml/kg volume. Mice in the vehicle arm were given the same dosing schedules, volumes, and formulations, but lacking Compound 1. Tumor volumes were measured twice weekly over the course of the study.

[3] = tested on: OV14702 xenograft; experiment: Ovarian PDX OV14702, tumor volume; conditions: OV14702 (RB1 null); 40 or 30 mg/kg i.v. BIW
Protocol: as §1, with “from ovarian carcinoma” for “from TNBC”, “patients (OV5387, OV14702, OV14972, OV15398, OV15576, OV15696, OV15612, OV15631)” for “patients (BR5010, BR5013, BR5015, and BR5023)”, “in mm3” for “in mm^3”, “V=0.5 a×b^2” for “V=0.5 a×b^2,”
as §2

Compound: CN(C)C/C=C/C(=O)Nc1ccc(C(=O)N[C@@]2(C)CCC[C@@H](Nc3ncc(Cl)c(-c4c[nH]c5ccccc45)n3)C2)nc1 [Compound 1, N-((1S,3R)-3-(5-chloro-4-(1H-indol-3-yl)pyrimidin-2-ylamino)-1-methylcyclohexyl)-5-((E)-4-(dimethylamino)but-2-enamido)picolinamide]
- Tumor growth vs untreated historical samples [1]: little inhibitory effect on tumor growth
- Tumor volume [2]: reduction in tumor volume
- Response to treatment (tumor growth) [3]: responded

— patent publication US20200113902A1, “COMPOSITIONS AND METHODS FOR TREATING CANCERS WITH COVALENT INHIBITORS OF CYCLIN-DEPENDENT KINASE 7 (CDK7)” (Syros Pharmaceuticals, Inc., priority 2017, published 2020)
